# Measured values: PMC9739792, “Screening and Molecular Mechanisms of Novel ACE-Inhibitory Peptides from Gracilariopsis lemaneiformis” (International Journal of Molecular Sciences, 2022)
# Where no end group is shown, it is not given here.
# Key:
# [1] = biological target: T1, ACE from rabbit lung (Oryctolagus cuniculus, UniProt P12822); assay: ACE-inhibitory activity assay (HHL substrate, hippuric acid by RP-HPLC); format: biochemical; settings: HHL 5 mM, pH 8.3, 37 °C, 45 min; for inhibition at 1000 µg/mL: synthetic peptides dissolved at 1 mg/mL; for IC50: synthetic peptides, mean ± SD, SD, read-out: IC50 of ACE inhibition
# T1 construct: ACE from rabbit lung (EC3.4.15.1); purchased Sigma-Aldrich; host or cells: rabbit lung tissue
# T1 sequence (P12822 34-1310): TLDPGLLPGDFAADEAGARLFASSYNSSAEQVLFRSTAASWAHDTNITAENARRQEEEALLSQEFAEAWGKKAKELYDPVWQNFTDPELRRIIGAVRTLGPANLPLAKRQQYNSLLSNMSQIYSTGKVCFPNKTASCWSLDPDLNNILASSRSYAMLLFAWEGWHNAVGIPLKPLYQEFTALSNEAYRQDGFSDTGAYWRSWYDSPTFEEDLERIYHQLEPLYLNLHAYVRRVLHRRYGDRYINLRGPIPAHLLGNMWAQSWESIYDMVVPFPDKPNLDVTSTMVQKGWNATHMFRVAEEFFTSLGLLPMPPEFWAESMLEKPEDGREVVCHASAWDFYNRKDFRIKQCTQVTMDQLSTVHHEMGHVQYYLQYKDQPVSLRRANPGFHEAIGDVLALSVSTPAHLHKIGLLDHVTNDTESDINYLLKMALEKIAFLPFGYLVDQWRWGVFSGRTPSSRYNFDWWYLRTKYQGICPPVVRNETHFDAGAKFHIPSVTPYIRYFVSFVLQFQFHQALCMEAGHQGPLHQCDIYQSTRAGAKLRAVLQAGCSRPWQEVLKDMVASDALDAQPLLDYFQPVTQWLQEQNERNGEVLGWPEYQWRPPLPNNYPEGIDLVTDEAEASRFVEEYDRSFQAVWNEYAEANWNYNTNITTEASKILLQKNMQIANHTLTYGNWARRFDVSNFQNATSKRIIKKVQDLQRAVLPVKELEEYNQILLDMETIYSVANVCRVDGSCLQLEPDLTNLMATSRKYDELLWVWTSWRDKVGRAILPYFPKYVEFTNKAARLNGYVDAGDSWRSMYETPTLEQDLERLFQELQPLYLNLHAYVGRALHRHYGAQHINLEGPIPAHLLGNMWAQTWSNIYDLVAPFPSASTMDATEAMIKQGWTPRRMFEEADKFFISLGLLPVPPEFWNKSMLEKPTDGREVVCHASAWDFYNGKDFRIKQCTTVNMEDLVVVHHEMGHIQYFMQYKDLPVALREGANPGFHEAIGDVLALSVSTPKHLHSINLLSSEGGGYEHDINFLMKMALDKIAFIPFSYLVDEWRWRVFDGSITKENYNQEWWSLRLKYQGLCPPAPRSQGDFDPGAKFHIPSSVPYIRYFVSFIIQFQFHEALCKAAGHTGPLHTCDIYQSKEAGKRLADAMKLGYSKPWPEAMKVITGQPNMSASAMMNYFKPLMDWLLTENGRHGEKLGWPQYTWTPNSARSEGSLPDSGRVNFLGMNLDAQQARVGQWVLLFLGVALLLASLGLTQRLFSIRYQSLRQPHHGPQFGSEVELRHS
# Description: The ACE-inhibitory activity was determined according to the method of Ma et al., with some modification. Briefly, 50 µL of sample in 0.1 mol/L borate buffer (pH 8.3, containing 0.3 M NaCl) was mixed with 150 µL of 5 mM hippuryl-l-histidyl-l-leucine (HHL) and incubated at 37 °C for 10 min. Then, the reaction was initiated by adding 50 µL of ACE solution (50 mU/mL) and incubating at 37 °C for 45 min. The reaction was then stopped by the addition of 250 µL of 1 M HCl. The formation of hippuric acid (HA) was measured by RP-HPLC (Waters, Milford, MA, USA) at 220 nm.
# The screened and predicted potential ACE-inhibitory peptides were chemically synthesized at Genscript biotech corporation (Nanjing, China) using the Fmoc solid-phase method. […] Synthetic peptides were dissolved at 1 mg/mL for validation of their ACE-inhibitory activity.
# [2] = tested on: spontaneously hypertensive rats (SHR); assay: Antihypertensive effect of GLP in SHR after oral administration; format: in vivo, rat; settings: captopril 30 mg/kg·bw
# Description: SHRs (male, 10 weeks, 220 ± 20 g body weight) were supplied by Vital River Laboratory Animal Technology Co., Ltd. (Beijing, China). […] Three doses of GLP (1200, 1500, 1800 mg/kg of body weight, BW) was orally administered to SHRs. The blank group (saline) and Captopril (30 mg/kg·bw) group were used as negative and positive control, respectively. BP-98A blood pressure monitor (Softron Biotechnology, Beijing, China) was used to determine blood pressure by the tail-cuff method. […] Animals were treated in accordance with the guidelines of the National Institutes of Health and Use of Laboratory Animals.
inhibition at 1000 µg/mL [1] [%],IC50 [1] [µM],Molecule,time course of antihypertensive effect compared with GLP [2]
94.2,6.45 ± 0.22,SFYYGK [SFYYGK],
87.7,9.18 ± 0.42,RLVPVPY [RLVPVPY],
,,C[C@H](CS)C(=O)N1CCC[C@H]1C(=O)O [captopril],reached its maximum effect faster than GLP
